MBC90, MBC100 and MBC99 data for 32 molecules are collected here from patent publication US11479587B2, “Cationic intrinsically disordered antimicrobial peptides” (priority 2016, dated 2022).

Marks after values point to notes of the source that are not given here. No end group written: not given here. *: point of attachment. Palmitoyl = CCCCCCCCCCCCCCCC(=O)*; Myristoyl = CCCCCCCCCCCCCC(=O)*

B1: LGHGQHGSGSGQSPSPSRGRHGSGSGQSSSYGPYRSGSGWSSSRGPYESGSGHSSGLGHRER (peptide)
chain: LGHGQHGSGSGQSPSPSRGRHGSGSGQSSSYGPYRSGSGWSSSRGPYESGSGHSSGLGHRER
modifications: Peptide derived from human hornerin (HRNR 995-1056)
B2: GHKSSSGQSSGYTQHGSGSGHSSSYEQHGSRSGQSSRSEQHGSSSGSSSSYGQHGSGSRQSL (peptide)
chain: GHKSSSGQSSGYTQHGSGSGHSSSYEQHGSRSGQSSRSEQHGSSSGSSSSYGQHGSGSRQSL
modifications: Peptide derived from human hornerin (HRNR 933-994)
B3: GHGRQGSGSRQSPSHVRHGSGSGHSSSHGQHGSGSSYSYSRGHYESGSGQTSGFGQHESGSGQSSGY (peptide)
chain: GHGRQGSGSRQSPSHVRHGSGSGHSSSHGQHGSGSSYSYSRGHYESGSGQTSGFGQHESGSGQSSGY
modifications: Peptide derived from human hornerin (HRNR 295-361)
B4: SQHKSSSGQSSGYSQHGSGSGHSSGYGQHGSRSGQSSRGDRHRSSSGSSSSYGQHGSGSRQSL (peptide)
chain: SQHKSSSGQSSGYSQHGSGSGHSSGYGQHGSRSGQSSRGDRHRSSSGSSSSYGQHGSGSRQSL
modifications: Peptide derived from human hornerin (HRNR 232-294)

For the first assay, the system named is P. aeruginosa ATCC 10145. Nature of the assay: CFU-assay, P. aeruginosa-cidal activity. It is filed as cell-based, Pseudomonas aeruginosa. As to conditions: pH 5.0, 0.25% glucose.
In the case of “GHHGGGGGHGGGHGGHGGGGGH (Modified peptide derived from human hornerin (HR 1-18 G+H)) [HR 1-18 G + H]”, the MBC90 is less than 0.006 µg/mL and the MBC100 was 0.09 µg/mL.
The corresponding values for “GRGGSGLGGSSSGGQGGSGSGRSSSRGPY (Modified peptide derived from human hornerin (HR 1-17 4H-4G all H vs G))” are 75 µg/mL and greater than 300 µg/mL.
The like results for “RGSGSGHQGHSSSHGLGSGHRG (Peptide with reverse sequence to 18 amino acid peptide derived from human hornerin (revHR 1-18))” were, in that order, less than 0.019 µg/mL and 0.075 µg/mL.

The assay is the same for the next values; noted with them: pH 5.5, 0.25% glucose.
The molecule “GHHGGGGGHGGGHGGHGGGGGH (Modified peptide derived from human hornerin (HR 1-18 G+H)) [HR 1-18 G + H]” returned an MBC90 of less than 0.006 µM and an MBC100 of 0.09 µM.
The like results for “RGRGR (Synthetic cationic intrinsically disordered antimicrobial peptide (GR5))” were, in that order, 6.1 µM and greater than 500 µM.
On to “HTHSGHAHGQAGSQHGESGSSVHER (Peptide derived from human filaggrin-2 (FLG-2 2044-2068)) [FLG-22044-2068]”, for which the MBC90 was 0.038 µg/mL and the MBC100 amounted to 0.3 µg/mL.
The like results for GOOGGOGGOGOGO [Orn-GR13] were, in that order, 0.034 µM and 1.1 µM.
As for “RHGSGLGHSSSH (Peptide derived from human hornerin (HR 1-27 HRNR 2657-2668)) [HR 1-27 HRNR2657-2668]”, the MBC90 is 75-100* μg/ml.
For “TAGRRGSGH (Peptide derived from human filaggrin-2 (FLG-2 2097-2105)) [FLG-22097-2105]”, the MBC90 is greater than 300 µg/mL and the MBC100 was greater than 300 µg/mL.
“HTHSGHTHGQAGSHYPESGSSVHER (Peptide derived from human filaggrin-2 (FLG-2 1969-1993)) [FLG-21969-1993]” showed an MBC90 of 0.038 µg/mL and an MBC100 of 0.3 µg/mL.
The like results for “HAHYGYGQSTQRGSRTTGRRGSGH (Peptide derived from human filaggrin-2 (FLG-2 2232-2255)) [FLG-22232-2255]” were, in that order, 0.075 µg/mL and 0.59 µg/mL.
Consider “HSSSHGQHGSGSGR (Peptide derived from human hornerin (HR 1-38 HRNR 2664-2677)) [HR 1-38 HRNR2664-2677]”, for which the MBC100 is greater than 300 µg/mL.
Still for that read-out and setting: then “GRHGSGSGHSSSHGQHGSGSGR (Peptide derived from human hornerin (HRNR 2186-2207)) [HRNR2186-2207]”, with 4.7-9.37* μg/ml.
On to “HGHGHGHGH (Synthetic cationic intrinsically disordered antimicrobial peptide (GH9))”, for which the MBC90 was determined as 0.18 µM; the MBC99 result is “MBC99: 99 μM”; the MBC100 is listed as >400, μM.
Take “RGSRSGQSSRGERRGSSSGSSSR (Modified peptide derived from human hornerin (HR 1-11 3H3R))”: the MBC90 was found to be 0.3 µg/mL and the MBC100 is recorded as 9.375* μg/ml.
The corresponding values for B1 are 0.3 µg/mL and 2.35 µg/mL.
The like results for B2 were, in that order, 0.3 µg/mL and 2.35 µg/mL.
The like results for B3 were, in that order, 0.15 µg/mL and 0.59 µg/mL.
As to B4, the MBC90 came to 0.30 µg/mL and the MBC100 came out at 2.35 µg/mL.

The assay is the same for the next values; noted with them: pH 5.5, 0.25% glucose; listed as HR 1-18 G+H.
The molecule “GHHGGGGGHGGGHGGHGGGGGH (Modified peptide derived from human hornerin (HR 1-18 G+H)) [HR 1-18 G + H]” had an MBC90 of less than 0.019 µg/mL and an MBC100 of 0.075 µg/mL.

Still in this assay, the particulars now being: pH 5.5, 1% TSB.
For “HGSRSGQSSRGEGHGSSSGSSSH (Modified peptide derived from human hornerin (HR 1-11 R3-G R2618G))”, the MBC90 was 75 µg/mL and the MBC100 is greater than 300 µg/mL.
“HR 2-8: CIDAMP tested alone and in 1:1 mixture with HR 1-8 HRNR2658-2677 (GSGSRQSPSYGR; Peptide derived from human hornerin (HR 2-8))” returned an MBC90 of 18.75 µg/mL and an MBC100 greater than 300 µg/mL.
The corresponding values for “HGSRSGQSSGGERHGSSSGSSSH (Modified peptide derived from human hornerin (HR 1-11 R2-G R2615G))” are 75 µg/mL and greater than 300 µg/mL.
The corresponding values for “SRQSPSYGRHGSGR (Modified peptide derived from human hornerin (HR 2-15 HRNR 1136-1150 S1148R)) [HR 2-15 HRNR1136-1150 S1148R]” are 75 µg/mL and greater than 300 µg/mL.
The corresponding values for “HGSRSGQSSRGERGGSSSGSSSH (Modified peptide derived from human hornerin (HR 1-11 H2-G H2619G))” are 75 µg/mL and greater than 300 µg/mL.
On to “GSGSRQSPSYGRQGSGSGR (Modified peptide derived from human hornerin (HR 2-4Q HRNR 1132-1150 H1144Q)) [HR 2-40 HRNR1132-1150 H1144Q]”, for which the MBC90 is greater than 300 µg/mL and the MBC100 was greater than 300 µg/mL.
Consider “GRHGSGSGQSSSYSPYGSGSGWSSSRGPY (Peptide derived from human hornerin (HRNR 2422-2450)) [HRNR2422-2450]”, for which the MBC100 was greater than 300 µg/mL.
“GSGSRQSPSHGRHGSGSGR (Modified peptide derived from human hornerin (HR 2-4H HRNR 1132-1150 Y1141H)) [HR 2-4H HRNR1132-1150 Y1141H]” yielded an MBC90 of 75 µg/mL and an MBC100 greater than 300 µg/mL.

Staying with this assay, now noted: pH 7.0, 0.25% glucose.
Take “GHHGGGGGHGGGHGGHGGGGGH (Modified peptide derived from human hornerin (HR 1-18 G+H)) [HR 1-18 G + H]”: the MBC90 was greater than 300 µg/mL and the MBC100 was greater than 300 µg/mL.

The next assay deals with S. aureus ATCC 6538. Put plainly: CFU-assay, S. aureus-cidal activity. Format: cell-based, Staphylococcus aureus. As to conditions: pH 5.5, 0.25% glucose. As to the method:
Thus, within the present invention, the antimicrobial activity is generally measured in nutrient deficient 10 mM sodium phosphate buffer pH 5.5, containing 0.25% glucose, using the CFU-assay according to Steinberg and Lehrer, 1997 (supra), unless otherwise indicated. The CFU-assay allows determination of the minimal bactericidal concentration (MBC, e.g., MBC90 and MBC100; i.e. the concentration of compound required to achieve a specified reduction in bacterial cell number (microbial death or killing)).
Various peptides corresponding to repeat domains of hornerin (HR 1-11: HRNR 2606-2628; HR 1-17: HRNR 2656-2684 and HR 1-18: HRNR 2656-2677) were tested for P. aeruginosa ATCC 10145-cidal activity in 10 mM Na-phosphate buffer pH 5.5, containing 0.25% glucose by counting the numbers of colonies of surviving bacteria at serial, twofold dilutions from 300 μg/ml down to 19 ng/ml of each peptide (CFU-assay; Steinberg and Lehrer, 1997, Methods Mol. Biol. 78, 169-186).
Staphylococcus aureus is a major skin pathogen, which causes skin infections, in particular in atopic dermatitis. The sensitivity of S. aureus ATCC 6538 towards several CIDAMPs was assessed using the CFU-assay as above (see Example 1). HR 1-18, which lacks S. aureus.-bactericidal activity, is converted in a S. aureus-cidal peptide, when all His are replaced by Arg (HR 1-18 4H-4R; see Table 13 and FIG. 9). […] HR 1-18 4H-4R is rich in Ser and Arg and contains a single Leu residue. When this single Leu was replaced by Gly in S. aureus-cidal HR 1-18 4H-4R (forming HR 1-18 4H-4R/L-G), S. aureus-cidal activity was abolished at both pH 7.0 and pH 5.5 (see Table 13 and FIG. 9).
The molecule “GQHGSSSGHSSTHGQHGSTSGQSSSC-Pal* (GQHGSSSGHSSTHGQHGSTSGQSSSC(Pal)-NH2) [S-Pal-HRNR598-623]” came in with an MBC90 of 2.35 µg/mL and an MBC100 greater than 150 µg/mL.
The corresponding values for “GRHGSGSGQSSGFGHHESSSWQSSGC-Pal* (GRHGSGSGQSSGFGHHESSSWQSSGC(Palmitoyl)-NH2) [S-Pal-HRNR1389-1414]” are 1.18 µg/mL and 18.8 µg/mL.
Take “GQHGSSSGHSSTHGQHGSASGQSSSC-Pal* (GQHGSSSGHSSTHGQHGSASGQSSSC(Pal)-NH2) [S-Pal-HRNR2004-2029]”: the MBC90 turned out to be 0.59 µg/mL.
“Pal-CGQHGATSSGQSSSHGQHGSGSSQSSGYGR (C(Palmitoyl)GQHGATSSGQSSSHGQHGSGSSQSSGYGR) [S-Pal-HRNR1089-1117]” yielded an MBC90 greater than 150 µg/mL and an MBC100 greater than 150 µg/mL.
Regarding “Pal-CGQHGATSGQSSSHGQHGSGSSQSSR (C(Palmitoyl)GQHGATSGQSSSHGQHGSGSSQSSR) [S-Pal-HRNR623-648]”, the MBC90 amounted to 2.35 µg/mL and the MBC100 is greater than 150 µg/mL.

Still in this assay, the particulars now being: pH 7.3, 1% TSB.
Molecule “Myr-GRRGSGLGRSSSRGQRGSGSGR (Myristoyl-GRRGSGLGRSSSRGQRGSGSGR) [Myr-HR 1-18 HR]” had an MBC90 of 18.75 µg/mL and an MBC100 of 75 µg/mL.
